Laboratory results from PubChem BioAssay (NCI).
Where “and” joins values, the source holds several entries; their conditions need not be identical. Equal values may be shown once.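 96-well plates; 48 h exposure; 5 concentrations. Endpoints by linear interpolation between flanking doses. Not reached: highest tested concentration assigned. GI50: concentration for 50% inhibition of growth. TGI: total growth inhibition.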

Experiments:
Experiment in all cases: NCI anticancer screen, dose series, 48 h
EKVX NSCLC = test system: EKVX NSCLC
HCC-2998 colon = test system: HCC-2998 colon
HCT-15 colon = test system: HCT-15 colon
HL-60(TB) leukemia = test system: HL-60(TB) leukemia
HT29 colon = test system: HT29 colon
M14 melanoma = test system: M14 melanoma
MCF7 breast = test system: MCF7 breast
OVCAR-4 ovarian = test system: OVCAR-4 ovarian
PC-3 prostate = test system: PC-3 prostate
RXF 393 renal = test system: RXF 393 renal

Structure (SMILES)	GI50 (EKVX NSCLC)	TGI (EKVX NSCLC)	GI50 (HCC-2998 colon)	TGI (HCC-2998 colon)	GI50 (HCT-15 colon)	TGI (HCT-15 colon)	GI50 (HL-60(TB) leukemia)	TGI (HL-60(TB) leukemia)	GI50 (HT29 colon)	TGI (HT29 colon)	GI50 (M14 melanoma)	TGI (M14 melanoma)	GI50 (MCF7 breast)	TGI (MCF7 breast)	GI50 (OVCAR-4 ovarian)	TGI (OVCAR-4 ovarian)	GI50 (PC-3 prostate)	TGI (PC-3 prostate)	GI50 (RXF 393 renal)	TGI (RXF 393 renal)
C=C1C(=O)O[C@H]2[C@H]1CC/C(COC(=O)c1ccc(Cl)nc1)=C\CC[C@@]1(C)O[C@@H]21	3.41 µM	13.6 µM	4.68 µM	18 µM	1.36 µM	3.39 µM	1.57 µM	4.72 µM	1.66 µM	4.11 µM	1.71 µM	4.02 µM	1.08 µM	3.72 µM	4.49 µM	18.4 µM	10.2 µM	23.1 µM	1.04 µM	2.31 µM
Cc1cc[c-]cc1.Fc1c[c-]c(-c2ccccn2)c(F)c1.[Pt+2].c1ccc(P(C[PH+](c2ccccc2)c2ccccc2)c2ccccc2)cc1	2.32 µM	12.7 µM	2.96 µM	12.1 µM	3.21 µM	12.6 µM	2.36 µM	6.88 µM	2.61 µM	12.4 µM	2.91 µM	13.7 µM	2.33 µM	7.83 µM	2.17 µM	9.4 µM	1.76 µM	11.7 µM	2.45 µM	8.64 µM
COc1cc2c(c(OC)n1)[C@]1(O)[C@H](O)[C@H](CN(C)C)[C@@H](c3ccccc3)[C@]1(c1ccc(C#N)cc1)O2	0.0305 µM and 0.0237 µM	2.81 µM and 2.54 µM	< 0.01 µM	0.564 µM and 0.81 µM	0.0243 µM and 0.0197 µM	3.65 µM and 3.44 µM	< 0.01 µM	0.921 µM and 0.213 µM	< 0.01 µM	4.25 µM and 4.04 µM	0.0147 µM and 0.0102 µM	0.193 µM and 0.114 µM	< 0.01 µM	0.721 µM and 3.09 µM	0.0371 µM and 0.0251 µM	3.72 µM and 5.27 µM	0.0223 µM and < 0.0116 µM	10.7 µM and 2.39 µM	0.0359 µM and 0.0195 µM	0.502 µM and 0.103 µM
COc1ccc2c(c1)C(C)Cc1c(ncnc1-n1c(C)nc3ccccc31)N2C (stereo not given)	3.94 µM	21.8 µM	4.09 µM	16.4 µM	1.83 µM	16.9 µM	2.59 µM	9.7 µM	2.81 µM	8.94 µM	2.62 µM	15.4 µM	1.88 µM	19.9 µM	6.24 µM	61.8 µM	3.25 µM	27.3 µM	2.83 µM	9.21 µM
COc1ccc2c(c1)[C@@]13CCCC[C@H]1[C@@H](C2)N(C)CC3=O	–	43.4 µM	–	31.5 µM	–	32.1 µM	–	> 100 µM	–	37.5 µM	–	31 µM	–	33.2 µM	–	33.3 µM	–	29 µM	–	29.1 µM
CCOC(=O)c1c[nH]c2oc(/C=N/N3CC(CN4CCOCC4)OC3=O)cc2c1=O (stereo not given)	–	> 100 µM	–	> 100 µM	–	> 100 µM	–	> 100 µM	–	> 100 µM	–	> 100 µM	–	> 100 µM	–	> 100 µM	–	> 100 µM	–	> 100 µM
